Counter-ions that a name gives are not always drawn.
Target: T1, human neuropeptide Y5 receptor (Homo sapiens, UniProt Q15761)
T1 construct: expressed in transfected cells; host or cells: HEK-293 (stably transfected, G-418 selected); membranes
T1 sequence (Q15761 1-445): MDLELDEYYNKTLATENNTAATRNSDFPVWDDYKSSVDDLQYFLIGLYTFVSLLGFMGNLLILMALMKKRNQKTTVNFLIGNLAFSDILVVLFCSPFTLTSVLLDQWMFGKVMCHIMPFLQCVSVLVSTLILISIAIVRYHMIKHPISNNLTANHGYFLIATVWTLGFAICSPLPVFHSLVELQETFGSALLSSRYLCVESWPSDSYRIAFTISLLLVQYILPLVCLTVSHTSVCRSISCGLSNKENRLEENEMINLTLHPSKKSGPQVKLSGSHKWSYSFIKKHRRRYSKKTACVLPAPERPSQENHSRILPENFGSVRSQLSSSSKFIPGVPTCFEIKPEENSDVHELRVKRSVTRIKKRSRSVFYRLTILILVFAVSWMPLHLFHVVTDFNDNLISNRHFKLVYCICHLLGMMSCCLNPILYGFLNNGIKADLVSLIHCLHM
Assay: NPY5 HTS centrifugation assay: competition with 125I-PYY for binding to membranes of NPY5-transfected HEK293 cells
Details: 80 pM 125I-PYY, 1 hr room temperature; for % Inh @ 300 nM (% Inhibition of 125I-PYY Binding) / inhibition at 0.3 µM: 300 nM compound; for % Inh @ 3 uM (% Inhibition of 125I-PYY Binding) / inhibition at 3 µM: 3 uM compound; for inhibition at 0.3 µM: read-out: % Inh @ 300 nM (% Inhibition of 125I-PYY Binding); for inhibition at 3 µM: read-out: % Inh @ 3 uM (% Inhibition of 125I-PYY Binding)
Method: The compounds described in this invention were evaluated for binding to the human neuropeptide Y5 receptor.
Stably transfected cells served as the source for the membranes for the NPY5 receptor binding assay.
NPY5-transfected HEK293 cells were grown to confluence in 150 cm^2 culture dishes. […] Cells were then incubated in phosphate-buffered saline without Calcium and without Magnesium, supplemented with 2 mM EDTA. Cells were incubated for 10 minutes at room temperature and the cells were collected by repetitive pipeting. Cells were formed into pellets and then frozen at −80 until needed. Frozen pellets were homogenized with a polytron at full speed for 12 seconds in a homogenization buffer (20 mM Tris HCl, 5 mM EDTA, pH 7.4). Homogenates were centrifuged for 5 minutes at 4 C at 200 g. Supernatants were transferred to corex tubes and centrifuged for 25 minutes at 28,000 g. Pellets were re-suspended in Binding (20 mM HEPES, 10 mM NaCl, 0.22 mM KH2PO4, 1.3 mM CaCl2, 0.8 mM MgSO4, pH 7.4). Membranes were kept on ice until use.
Compounds to be tested were prepared as 10× stocks in binding buffer and added first to assay tubes (RIA vials, Sarstedt). […] To each tube is added 100 μL of membranes and the mixture is agitated by pipeting 2 times. Samples are incubated for 1 hr at room temperature. Aluminum cast plates (Sarstedt) containing the vials are then centrifuged 10 minutes at 3200 rpm in a Sorvall RT6000. Supernatant is then aspirated. To each vial 400 μL PBS is added and this is then aspirated again. Vials are then put in carrier polypropylene 12×75 tube and counted in gamma counter (Packard). Non-specific binding is determined in the presence of 300 nM NPY. […] These operations are known to those skilled in the art.

| Compound | % Inh @ 300 nM (% Inhibition of 125I-PYY Binding) [%] | % Inh @ 3 uM (% Inhibition of 125I-PYY Binding) [%] | inhibition at 0.3 µM [%] | inhibition at 3 µM [%] |
| --- | --- | --- | --- | --- |
| NC(CCCCNS(=O)(=O)c1ccccc1)C(=O)NC1CCc2ccccc2C1Cc1cccnc1 (mixture of isomers) [Compound 33] | 52 | 96 |  |  |
| CC(=O)NC(CCCCNS(=O)(=O)c1ccccc1)C(=O)NC1CCc2ccccc2C1Cc1cccnc1 (mixture of isomers) [Compound 37] | 89 | 102 |  |  |
| O=C(NC(CCCCNS(=O)(=O)c1ccccc1)C(=O)NC1CCc2ccccc2C1Cc1cccnc1)c1ccccc1 (mixture of isomers) [Compound 39] | 70 | 95 |  |  |
| CCNC(=O)NC(CCCCNS(=O)(=O)c1ccccc1)C(=O)NC1CCc2ccccc2C1Cc1cccnc1 (mixture of isomers) [Compound 40] | 21 | 92 |  |  |
| NC(=O)NC(CCCCNS(=O)(=O)c1ccccc1)C(=O)NC1CCc2ccccc2C1Cc1cccnc1 (mixture of isomers) [Compound 41] | 54 | 94 |  |  |
| CC(C)(C)OC(=O)NC1CCN(CC(=O)NC2CCc3cc(F)ccc3C2Cc2cccnc2)C1 (mixture of isomers) [Compound 56] | 88 | 94 |  |  |
| CC(C)(C)OC(=O)NC1CCN(CC(=O)NC2CCc3cc(F)ccc3C2Cc2cccnc2)C1 (mixture of isomers) [Compound 57] | 87 | 93 |  |  |
| O=C(CN1CCC(NS(=O)(=O)c2ccccc2)C1)NC1CCc2cc(F)ccc2C1Cc1cccnc1 (mixture of isomers) [Compound 58] | 93 | 91 |  |  |
| O=C(CN1CCC(NS(=O)(=O)c2ccccc2)C1)NC1CCc2cc(F)ccc2C1Cc1cccnc1 (mixture of isomers) [Compound 59] | 90 | 93 |  |  |
| O=C(CN1CCC(NC(=O)c2ccccc2)C1)NC1CCc2cc(F)ccc2C1Cc1cccnc1 (mixture of isomers) [Compound 60] | 86 | 109 |  |  |
| NC(CCCCNS(=O)(=O)c1ccccc1)CNC1CCc2ccccc2C1Cc1cccnc1 (mixture of isomers) [Compound 65] | 79 | 98 |  |  |
| CCNC(CCCCNS(=O)(=O)c1ccccc1)CNC1CCc2ccccc2C1Cc1cccnc1 (mixture of isomers) [Compound 68] | 109 | 108 |  |  |
| O=C(Nc1ccccc1)NC(CCCCNS(=O)(=O)c1ccccc1)C(=O)NC1CCc2ccccc2C1Cc1cccnc1 (mixture of isomers) [Compound 72] | 41 | 73 |  |  |
| O=C(CN1CCC(NS(=O)(=O)c2ccccc2)C1)N[C@H]1CCc2cc(F)ccc2[C@H]1Cc1cccnc1 (relative stereo) [Compound 17, 3-[(Phenylsulfonyl)amino]-N-[cis-1,2,3,4-tetrahydro-6-fluoro-1-(3-pyridinylmethyl)-2-naphthalenyl]-1-pyrrolidineacetamide bis-trifluoroacetate] |  |  | 98 | 102 |
| COc1ccc2c(c1)CC[C@H](NC(=O)CN1CCC(n3c(=O)[nH]c4ccccc43)CC1)[C@@H]2Cc1cccnc1 (relative stereo) [Compound 19, 4-(2,3-Dihydro-2-oxo-1H-benzimidazol-1-yl)-N-[cis-1,2,3,4-tetrahydro-6-methoxy-1-(3-pyridinylmethyl)-2-naphthalenyl]-1-piperidineacetamide Bis-hydrochloride] |  |  | 69 | 101 |
| COc1ccc2c(c1)CC[C@@H](NC(=O)CN1CCC(n3c(=O)[nH]c4ccccc43)CC1)[C@@H]2Cc1cccnc1 (relative stereo) [Compound 20, 4-(2,3-Dihydro-2-oxo-1H-benzimidazol-1-yl)-N-[trans-1,2,3,4-tetrahydro-6-methoxy-1-(3-pyridinylmethyl)-2-naphthalenyl]-1-piperidineacetamide bis-hydrochloride] |  |  | 88 | 96 |
| CC(=O)C1(c2ccccc2)CCN(CC(=O)N[C@H]2CCc3ccccc3[C@H]2Cc2cccnc2)CC1 (relative stereo) [Compound 21, 4-Acetyl-4-phenyl-N-[cis-1,2,3,4-tetrahydro-1-(3-pyridinylmethyl)-2-naphthalenyl]-1-piperidineacetamide bis-hydrochloride] |  |  | 83 | 98 |
| O=C(CN1CCC2(CC1)C(=O)NCN2c1ccccc1)N[C@H]1CCc2ccccc2[C@H]1Cc1cccnc1 (relative stereo) [Compound 22, 4-Oxo-1-phenyl-N-[cis-1,2,3,4-tetrahydro-1-(3-pyridinylmethyl)-2-naphthalenyl]-1,3,8-triazaspiro[4.5]decane-8-acetamide bis-hydrochloride] |  |  | 32 | 70 |
| O=C(CN1CCC(n2c(=O)[nH]c3ccccc32)CC1)N[C@H]1CCc2cc(O)ccc2[C@H]1Cc1cccnc1 (relative stereo) [Compound 23, 4-(2,3-Dihydro-2-oxo-1H-benzimidazol-1-yl)-N-[cis-1,2,3,4-tetrahydro-6-hydroxy-1-(3-pyridinylmethyl)-2-naphthalenyl]-1-piperidineacetamide bis-hydrochloride] |  |  | 96 | 100 |
| O=C(NCC(Cc1cccnc1)c1ccc(F)cc1)[C@H]1CC[C@H](CNS(=O)(=O)c2ccccc2F)CC1 (relative stereo) [Compound 26, trans-N-[2-(4-fluorophenyl)-3-(3-pyridinyl)propyl]-4-[((2-fluorophenylsulfonyl)amino)methyl]-1-cyclohexanamide hydrochloride] |  |  | 108 | 110 |
| NC(CCCCNS(=O)(=O)c1ccccc1)C(=O)NC1CCc2ccccc2C1Cc1cccnc1 (single isomer, unassigned) [Compound 34a] | 87 | 97 |  |  |
| NC(CCCCNS(=O)(=O)c1ccccc1)C(=O)NC1CCc2ccccc2C1Cc1cccnc1 (single isomer, unassigned) [Compound 34b] | 61 | 99 |  |  |
| CC(=O)NC(CCCCNS(=O)(=O)c1ccccc1)C(=O)NC1CCc2ccccc2C1Cc1cccnc1 (single isomer, unassigned) [Compound 38a] | 80 | 104 |  |  |
| CC(=O)NC(CCCCNS(=O)(=O)c1ccccc1)C(=O)NC1CCc2ccccc2C1Cc1cccnc1 (single isomer, unassigned) [Compound 38b] | 89 | 101 |  |  |
| CN(C)C(CCCCNS(=O)(=O)c1ccccc1)C(=O)NC1CCc2ccccc2C1Cc1cccnc1 (single isomer, unassigned) [Compound 43a] | 84 | 93 |  |  |
| CN(C)C(CCCCNS(=O)(=O)c1ccccc1)C(=O)NC1CCc2ccccc2C1Cc1cccnc1 (single isomer, unassigned) [Compound 43b] | 62 | 86 |  |  |
| NC(CCCCNS(=O)(=O)c1ccccc1)CNC1CCc2ccccc2C1Cc1cccnc1 (single isomer, unassigned) [Compound 66] | 98 | 102 |  |  |
